Experimental findings from US20080004561A1, “Method for Treating Oncological, Virulent and Somatic Diseases, Method for Controlling Treatment Efficiency, Pharmaceutical Agents and Composition for Carrying Out Said Treatment” (priority 2005, published 2008) are described below.

One data set concerns LLC tumor. The experiment in a line: LLC tumor growth under Doxorubicin, plasma DNA of chemotherapy-treated mice and DNase I (Example 14). In kind it is in vivo, C57B1 mice. From the text: Blood plasma DNA of tumor-bearing mice was received according to technique described above. Highly metastatic and low metastatic stains of mice' Luice lung carcinoma and Erlich carcinoma were used. Cells were cultivated in RPMI-1640 media with adding of 10% embryonic calf serum, 1% penicillin—streptomycin in 5% carbon dioxide atmosphere. For tumor induction in mice, cells were cultivated until the monolayer, than were detached with trypsin-EDTA solution. Cells were washed trice by centrifuging in phosphate buffer and were resuspensed until their concentration have become 0.5×10^7/ml. Viability was defined by inclusion of methylene blue in hemocytometer. Suspensions that contained 95% of viable cells were used for administration to animals.
Mice of C57B1 line and white not thoroughbred mice from “Rappolovo” animal house were used. Weight of animals was 24-26 grams. Animals were contained in cages, for 6-7 mice per one cage on a standard diet without water restriction. LLC cells in dose of 5×10^5 in 100 mkl of phosphate buffer were injected in soft tissues of thigh. Erlich tumor was subcutaneously replanted on the right side by injection of 0.2 ml 10% cells' suspension in isotonic sodium chloride solution.

The subject of the next data set is P-glycoprotein. Nature of the data set: P-glycoprotein expression in Erlich carcinoma, immunohistochemical staining (Example 13). The conditions noted are these: 5 day therapy from 3rd day: Doxorubicin 2 mg/kg intravenously daily, DNase I 0.5 mg/kg four times a day; tissue on 8th day. In kind it is in vivo, mice.
The subject of a further data set is Erlich carcinoma. The experiment in a line: Combined use of DNase and Doxorubicin, Erlich tumor growth (Example 3). In kind it is in vivo, mice. The conditions noted are these: Doxorubicin 2 mg/kg intravenously once a day and/or DNase 0.5 mg/kg intraperitoneally four times a day, day 3 to 7; 7th day after transplantation. The method, then:
Bovine pancreatic DNase I (Fermentas) and human recombinant DNase […]) were used. DNase I solution for injections were prepared by dissolving of DNase matrix solution in sterile phosphate buffer directly before administration. […] Blood plasma DNA of tumor-bearing mice was received according to technique described above. Highly metastatic and low metastatic stains of mice' Luice lung carcinoma and Erlich carcinoma were used. […] For tumor induction in mice, cells were cultivated until the monolayer, than were detached with trypsin-EDTA solution. Cells were washed trice by centrifuging in phosphate buffer and were resuspensed until their concentration have become 0.5×10^7/ml. Viability was defined by inclusion of methylene blue in hemocytometer. […] Mice of C57B1 line and white not thoroughbred mice from “Rappolovo” animal house were used. Weight of animals was 24-26 grams. Animals were contained in cages, for 6-7 mice per one cage on a standard diet without water restriction. LLC cells in dose of 5×10^5 in 100 mkl of phosphate buffer were injected in soft tissues of thigh. […] Group 1-10 mice transplanted with Erlich carcinoma (control). Group 2-10 mice replanted with Erlich carcinoma. […] Group 3-10 mice replanted with Erlich carcinoma. […] Group 4-10 mice replanted with Erlich carcinoma. […] Results of experiments were estimated according to tumor's growth inhibition (TGI) that were expressed in percents to control data received at last day of DNase injection with standard formula using.

A short description of data set [1]: Toxic effect of human DNase I injection on animals. The format is in vivo. As to conditions: single and multiple injection of up to 2.5 mg/kg.
Data set [2] is described as follows: Influence of DNase I therapy on old rats' life time (Example 19). In kind it is in vivo. The conditions noted are these: 24 month old rats, 500 mg/kg intravenously 2 times a week during 2 months. The method, then:
White not thoroughbred 24 month old rats were used in experiment. In the study group (10 animals) rats starting from the age of 24 months were subjected to intravenous administration of polysialated human DNase I at […] (equivalent dose of non-modified enzyme) 2 times a week during 2 months. Control group of animals got the administration of placebo. Average life time of rats from control group was 27.8 months. Average life time of rats from experimental group was 30.1 months.

Protocol for P-glycoprotein: Mice were subjected to course of 5 day therapy with Doxorubicin (2 mg/kg intravenously daily) or Doxorubicin+DNase I (0.5 mg/kg four times a day during 5 days)
Tissue preparations were executed on the 8th day of tumor's transplantation.

On to `O=P1(N(CCCl)CCCl)NCCCO1` (centres unmarked) [Cyclophosphamide], for which, in the data set with LLC tumor (mouse, in vivo), the “tumor inhibition at day 8” value is on record as 30%.
`COc1cccc2c1C(=O)c1c(O)c3c(c(O)c1C2=O)C[C@@](O)(C(=O)CO)C[C@@H]3O[C@H]1C[C@H](N)[C@H](O)[C@H](C)O1` [Doxorubicin]: the “Tumor's size” value with LLC tumor (8th day after transplantation, Doxorubicin 2 mg/kg i.v. daily day 3-8, DNA 0.05 mkg i.v. day 1 and 3 of treatment, DNase I 0.5 mg/kg i.p. 4 times a day, first and second days) is recorded as 67 +/− 7. In the data set on LLC tumor (Doxorubicin 2 mg/kg daily for 5 days from day 3, Cyclophosphamide 15 mg/kg intraperitoneally once on 3rd day), the “tumor inhibition at day 8” value was found to be 50%. The “P-glycoprotein expression in tumor tissue” value with P-glycoprotein is listed as “Multifocal expression”. Moreover, in the data set with Erlich carcinoma, the “T% (tumor's growth inhibition)” value is 42% and the “Tumor's volume” value is on record as 57 +/− 10.

B1: human DNase I: human recombinant DNase I (Dornase; Gentech) (protein, UniProt P24855 23-282, looked up)
Deoxyribonuclease-1: LKIAAFNIQTFGETKMSNATLVSYIVQILSRYDIALVQEVRDSHLTAVGKLLDNLNQDAPDTYHYVVSEPLGRNSYKERYLFVYRPDQVSAVDSYYYDDGCEPCGNDTFNREPAIVRFFSRFTEVREFAIVPLHAAPGDAVAEIDALYDVYLDVQEKWGLEDVMLMGDFNAGCSYVRPSQWSSIRLWTSPTFQWLIPDSADTTATPTHCAYDRIVVAGMLLRGAVVPDSALPFNFQAAYGLSDQLAQAISDHYPVEVMLK
B1: the “Toxic effect on animals” value in data set [1] is listed as “no toxic effect”.

B2: polysialated human DNase I: polysialated human DNase I, dose as equivalent of non-modified enzyme (protein, UniProt P24855 23-282, looked up)
Deoxyribonuclease-1: LKIAAFNIQTFGETKMSNATLVSYIVQILSRYDIALVQEVRDSHLTAVGKLLDNLNQDAPDTYHYVVSEPLGRNSYKERYLFVYRPDQVSAVDSYYYDDGCEPCGNDTFNREPAIVRFFSRFTEVREFAIVPLHAAPGDAVAEIDALYDVYLDVQEKWGLEDVMLMGDFNAGCSYVRPSQWSSIRLWTSPTFQWLIPDSADTTATPTHCAYDRIVVAGMLLRGAVVPDSALPFNFQAAYGLSDQLAQAISDHYPVEVMLK
modifications: polysialylated
notes: polysialated human DNase I, dose as equivalent of non-modified enzyme
B2 yielded an Average life time in data set [2] of 30.1 months.
